For one series, the system named is HEK293 cells. In words: CellTiter-Glo Luminescent Cell Viability Assay in HEK293 cells. In kind it is cell-based. Conditions: Homo sapiens, 7 days (168 h) incubation, 3 μM to 0.00015 μM. From the text:
CellTiter-Glo™ Assay in HEK293 Cells
The CellTiter-Glo™ Luminescent Cell Viability Assay (Promega) is a homogeneous method of determining the number of viable cells in culture based on quantitation of the ATP present, which signals the presence of metabolically active cells.
HEK293 cells (human embryonic kidney cell line transformed by Adenovirus 5 fragments, ATCC-No. CRL 1573) are cultivated in Dulbecco's Modified Eagle Medium (DMEM) with Glutamax™ (Invitrogen, 31966-021), 5% Fetal Calf Serum (FCS, Sigma Cat-No. F4135 (FBS)), 100 Units/ml penicillin/100 μg/ml streptomycin (=Pen/Strep from Invitrogen Cat. No. 15140). For the assay the cells are seeded in 384 well plates, 5000 cells per well, in the same medium. The next day the test compounds are added in various concentrations ranging from 3 μM to 0.00015 μM (10 concentrations, 1:3 diluted). After 7 days the CellTiter-Glo™ assay is done according to the instructions of the manufacturer (CellTiter-Glo™ Luminescent Cell Viability Assay, from Promega). In brief: the cell-plate is equilibrated to room temperature for approximately 30 minutes and than the CellTiter-Glo™ reagent is added. The contents are carefully mixed for 15 minutes to induce cell lysis. After 45 minutes the luminescent signal is measured in Victor 2, (scanning multiwell spectrophotometer, Wallac).
1. day: • Medium: Dulbecco's Modified Eagle Medium (DMEM) with Glutamax™ (Invitrogen, 31966-021), 5% Fetal Calf Serum (FCS, Sigma Cat-No. F4135 (FBS)), Pen/Strep (Invitrogen Cat. No. 15140). • HEK293 (ATCC-No. CRL 1573): 5000 cells in 60 μl per well of 384 well plate (Greiner 781098, white plates) • Incubate 24 h at 37° C., 5% CO2 2. day: Induction (Substance testing):
In general the dilution steeps are 1:3 • a) Add 8 μl of 10 mM stock solution of compound to 72 μl DMSO • b) dilute 9× 1:3 (always 30 μl to 60 μl DMSO) in this DMSO dilution row (results in 10 wells with concentrations from 1000 μM to 0.06 μM) • c) dilute each concentration 1:4.8 (10 μl compound dilution to 38 μl medium) • d) dilute each concentration 1:10 (10 μl compound dilution to 90 μl medium) • e) add 10 μl of every concentration to 60 μl medium in the cell plate • resulting in final concentration of DMSO: 0.3% in every well • and resulting in final concentration of compounds from 3 μM to 0.00015 μM • Incubate 168 h (7 days) at 37° C., 5% CO2
• Add 30 μl CellTiter-Glo™ Reagent/well, • shake 15 minutes at room temperature • incubate further 45 minutes at room temperature without shaking.
• Victor 2 scanning multiwell spectrophotometer (Wallac), Luminescence mode • Determine IC50 with XL-fit (XLfit software (ID Business Solution Ltd., Guilford, Surrey, UK)).
Background: ATP-based viability assays read luminescence as a measure of living cells.

SMILES strings stand for the structures.

Take `FC(F)(F)Oc1ccc(/C=C/c2nc(COc3ccc(CCCCn4ccnc4)nn3)co2)cc1` [Example 1, 3-(4-Imidazol-1-yl-butyl)-6-{2-[(E)-2-(4-trifluoromethoxy-phenyl)-vinyl]-oxazol-4-ylmethoxy}-pyridazine]: in the series on HEK293 cells, the IC50 (as a rule, the concentration at which inhibition is half-maximal) was in the range of 0.2 to 2 µM. As to `Clc1ccc(/C=C/c2nc(COc3ccc(CCCCn4cncn4)nn3)co2)cc1` [Example 2, 3-{2-[(E)-2-(4-Chloro-phenyl)-vinyl]-oxazol-4-ylmethoxy}-6-(4-[1,2,4]triazol-1-yl-butyl)-pyridazine], the melting point (in general, the temperature, or range, at which the solid turns liquid) was in the range of 165 to 167 °C. The molecule further returned an IC50 in the series with HEK293 cells of 0.2 to 2 µM. For `FC(F)(F)c1ccc(/C=C/c2nc(COc3ccc(CCCCn4cncn4)nn3)co2)cc1` [Example 3, 3-(4-[1,2,4]Triazol-1-yl-butyl)-6-{2-[(E)-2-(4-trifluoromethyl-phenyl)-vinyl]-oxazol-4-ylmethoxy}-pyridazine] the same measures were 145 to 146 °C and 0.93 µM. Consider `Fc1cc(C(F)(F)F)ccc1/C=C/c1nc(COc2ccc(CCCCn3cncn3)nn2)co1` [Example 4, 3-{2-[(E)-2-(2-Fluoro-4-trifluoromethyl-phenyl)-vinyl]-oxazol-4-ylmethoxy}-6-(4-[1,2,4]triazol-1-yl-butyl)-pyridazine], for which the melting point was in the range of 141 to 143 °C. Moreover, the IC50 with HEK293 cells was in the range of 0.2 to 2 µM. The molecule `FC(F)(F)c1ccc(/C=C/c2nc(COc3cnc(CCCCn4cncn4)cn3)co2)cc1` [Example 5, 2-(4-[1,2,4]Triazol-1-yl-butyl)-5-{2-[(E)-2-(4-trifluoromethyl-phenyl)-vinyl]-oxazol-4-ylmethoxy}-pyrazine] showed a melting point of 147 to 148 °C. Besides, the IC50 in the series with HEK293 cells was in the range of 0.2 to 2 µM.

In turn, `Clc1ccc(/C=C/c2nc(COc3cnc(CCCCn4cncn4)cn3)co2)cc1` [Example 6, 2-{2-[(E)-2-(4-Chloro-phenyl)-vinyl]-oxazol-4-ylmethoxy}-5-(4-[1,2,4]triazol-1-yl-butyl)-pyrazine] gave a melting point of 157 to 158 °C. Further, the IC50 in the series with HEK293 cells amounted to 1.34 µM.

`FC(F)(F)Oc1ccc(/C=C/c2nc(COc3cnc(CCCCn4cncn4)cn3)co2)cc1` [Example 7, 2-(4-[1,2,4]Triazol-1-yl-butyl)-5-{2-[(E)-2-(4-trifluoromethoxy-phenyl)-vinyl]-oxazol-4-ylmethoxy}-pyrazine] yielded a melting point of 121 to 123 °C. `FC(F)(F)Oc1ccc(/C=C/c2nc(COc3ncc(CCCCn4cccn4)cn3)co2)cc1` [Example 8, 5-(4-Pyrazol-1-yl-butyl)-2-{2-[(E)-2-(4-trifluoromethoxy-phenyl)-vinyl]-oxazol-4-ylmethoxy}-pyrimidine] registered a melting point of 143 to 145 °C. Moreover, in the series on HEK293 cells, the IC50 lay within 0.2 to 2 µM. Consider `FC(F)(F)c1ccc(/C=C/c2nc(COc3ncc(CCCCn4cccn4)cn3)co2)cc1` [Example 9, 5-(4-Pyrazol-1-yl-butyl)-2-{2-[(E)-2-(4-trifluoromethyl-phenyl)-vinyl]-oxazol-4-ylmethoxy}-pyrimidine], for which the melting point was 156 to 157 °C. On to `Clc1ccc(/C=C/c2nc(COc3ncc(CCCCn4cccn4)cn3)co2)cc1` [Example 10, 5-(4-Pyrazol-1-yl-butyl)-2-{2-[(E)-2-(4-chloro-phenyl)-vinyl]-oxazol-4-ylmethoxy}-pyrimidine], for which the melting point was 149 to 150 °C. Further, in the series with HEK293 cells, the IC50 lay within 0.2 to 2 µM.

The record behind these values is patent US20090093491A1, “Diazine Azole Derivatives, Their Manufacture and Use as Pharmaceutical” (priority 2005, published 2009).
